Test results reported in patent publication US10617694B2 (priority 2016, dated 2020).
Like-named read-outs stand apart in the source and are kept apart here.

Key:
[1] = system: patients with obstructive sleep apnea; assay: Table 1 summary of efficacy and side effects in sleep apnea, compared with acetazolamide, topiramate and zonisamide data; type: in vivo, human; parameters: key to Side effect paresthesia (P) (scale 0-3) / Side effect cognitive dysfunction (C) (scale 0-3): 1 = none; 2 = low; 3 = medium; 4 = high; Reduction in AHI: concentration or dose not given beside the values; details: for Side effect total rating (T) (scale 0-3): T = (P + 2C)/3, Table 1; for Reduction in AHI: own data: sultiame Examples 1 and 2 (n = 3); for Reduction in AHI / Efficacy AHI reduction (rating 0-3) / Side effect cognitive dysfunction (C) (scale 0-3) / Side effect paresthesia (P) (scale 0-3): acetazolamide Example 2; for Efficacy AHI reduction (rating 0-3) / Side effect cognitive dysfunction (C) (scale 0-3) / Side effect paresthesia (P) (scale 0-3): own data: sultiame Examples 1 and 2, topiramate unpublished data
Description: The results from Example 1 and 2 are summarized in table 1, below, where the results are further compared with data reflecting the effect of acetazolamide, topiramate and zonisamide in sleep apnea.

[2] = system: Carbonic anhydrase (CA); assay: Carbonic anhydrase activity in venous blood from a patient with obstructive sleep apnea (pH curve AUC); type: biochemical, human; details: diluted hemolysed blood of one OSA patient
Method: Carbonic anhydrase (CA) activity was assessed in human plasma from an apnea patient using a method previously described in detail (Teng et al, Sleep 2016). […] The blood sample (antecubital vein) was collected in an EDTA-coated tube, stored within 30 min at −20° C. and subsequently transferred to −70° C. Prior to analysis, the sample was slowly thawed, refrozen and re-thawed on ice in order to obtain hemolysis. The assay was adapted from a method previously described by Everaert et al (ref in Teng et al, Sleep 2016). In detail, a buffer consisting of 0.02M HEPES, 0.02M MES, 0.035M KCl and 0.015M NaCl with a balanced capacity in the pH 6-8 range was prepared. The subsequent analysis was conducted on ice in order to maintain a temperature of around 0-1° C. A separate solution constituting of 200 ml of 0-1° C. distilled water was continuously flushed with 100% CO2 and kept at 0-1° C. for at least 30 min. […] The pH in the reaction vessel was continuously monitored at 1 Hz during 120 s. […] The intra- and inter assay variability was 5.0% and 7.6%, respectively. pH curves were plotted and analysed (FIG. 1). In order to reflect time of the catalysed reaction the area under the curve (AUC, range 802-837) was calculated as the sum of all pH assessments during 120 sec. […]

[3] = system: patients with obstructive sleep apnea; parameters: key to Side effect paresthesia (P) (scale 0-3) / Side effect cognitive dysfunction (C) (scale 0-3): 1 = none; 2 = low; 3 = medium; 4 = high; details: cited from earlier work; for Reduction in AHI / Reported adverse events. Frequency (n/patient): literature: acetazolamide meta data from 9 publications (n = 268), zonisamide Eskandari et al. (n = 13); for Efficacy AHI reduction (rating 0-3) / Side effect cognitive dysfunction (C) (scale 0-3) / Side effect paresthesia (P) (scale 0-3): literature: acetazolamide meta data, zonisamide Eskandari et al.
[4] = system: subjects with obstructive sleep apnea; assay: Long term effect of sultiame and acetazolamide in obstructive sleep apnea, sleep studies (Example 2); details: for AHI at follow-up: sultiame 200 mg single daily dose for three months
[5] = system: patient with obstructive sleep apnea; assay: Repeated dosing of sultiame in obstructive sleep apnea, repeated sleep studies (Example 1); type: in vivo, human; details: for central AHI: baseline 3.2 n/h; for obstructive AHI: baseline 12.4 n/h; for AHI: baseline 16.6 n/h; for lowest saturation: baseline 87%; for mean oxygen saturation: baseline 95.3%
Description: Person, BMI 28.3 kg/m^2. The subject was a non-smoker and there was no history of cardiovascular or metabolic disease and no regular medication. This subject presented with a history of snoring, witnessed apneas, and increased daytime sleepiness. They had previously tested both CPAP and mandibular advancement therapy with moderate regression of symptoms. The subject had experienced intolerable side effects including dry airways and sneezing caused by CPAP therapy. They had experienced discomfort from the temporomandibular joints following use of an intraoral device for mandibular advancement.
There had been a weight gain corresponding to 2 kg during the last three years.
It was decided that sultiame should be tested. Repeated sleep studies were undertaken before and after therapy with sultiame.
This second assessment provided the following values: AHI 9.8 n/h (central AHI 2.2 n/h and obstructive AHI 7.6/h), mean oxygen saturation 95.8%, lowest saturation 89%, and periodic breathing pattern 10.1 minutes.
There had been a weight reduction corresponding to 1.2 kg

[6] = system: healthy volunteers; assay: Clinical trial on tolerability of a high dose of sultiame in healthy volunteers; type: in vivo, human
Method: Most earlier clinical trials have been carried out in patients diagnosed with epilepsy. The goal of this study was to investigate the tolerability of sultiame in non-epileptic patients.
The trial involved 16 healthy volunteers. […] The administration was carried out without ramping up the dose. There were only two reports of adverse events in this group of 16 volunteers (32 dosing occasions, 12.5% of individuals or 6.25% of dosing occasions). These adverse events were limited to short periods of headache, which occurred when the drug was administered without food. The headache resolved within a short time frame.

[7] = cited from earlier work
[8] = own data: acetazolamide Example 2, topiramate unpublished data (n = 4)
[9] = topiramate unpublished data (n = 4)
[10] = 100 mg orally once daily, after 5 days
[11] = sultiame 200 mg daily for three months, both subjects

SMILES: CC(=O)Nc1nnc(S(N)(=O)=O)s1 [Acetazolamide]
- Side effect total rating (T) (scale 0-3) [1]: 2.7
- Reported adverse events. Frequency (n/patient) [1, 8]: 1.0/patient
- Reduction in AHI [1, 9]: 28.0%
- Efficacy AHI reduction (rating 0-3) [1]: 1 (5-<30% = 1)
- Side effect cognitive dysfunction (C) (scale 0-3) [1]: 2
- Side effect paresthesia (P) (scale 0-3) [1]: 4
- CA activity after compound (peak inhibition), arbitrary units 850-AUC ([2]; 0-1° C., 120 s, activity without compound 32, concentrations 1×10^−11 to 5×10^−9 M): 19.5 units
- reduction of CA activity ([2]; reduction from 32 units): 39%
- Reduction in AHI [3]: 37.3%
- Reported adverse events. Frequency (n/patient) [3]: 1.08/patient
- Reduction in AHI ([3]; listed as acetazolamide): 37.3%
- Efficacy AHI reduction (rating 0-3) [3]: 2 (30-<50% = 2)
- Side effect cognitive dysfunction (C) (scale 0-3) [3]: 2
- Side effect paresthesia (P) (scale 0-3) [3]: 4
- side effects: paraesthesia ([4]; acetazolamide 500 mg o.d., both subjects): both subjects developed peripheral paraesthesia
- oxygen desaturation index (ODI) ([4]; first subject, acetazolamide 500 mg o.d., 10 days after start, before 16.6 n/h): 12.6 n/h
- AHI ([4]; first subject, acetazolamide 500 mg o.d., 10 days after start, before 17.4 n/h): 13.4 n/h
- oxygen desaturation index (ODI) ([4]; second subject, acetazolamide 500 mg o.d., 16 days after start, before 12.6 n/h): 9.2 n/h
- AHI ([4]; second subject, acetazolamide 500 mg o.d., 16 days after start, before 15.2 n/h): 10.2 n/h

SMILES: NS(=O)(=O)c1ccc(N2CCCCS2(=O)=O)cc1 [Sultiame]
- daytime symptoms of sleepiness [5, 10]: general resolution of daytime symptoms of sleepiness
- central AHI [5, 10]: 2.2 n/h
- obstructive AHI [5, 10]: 7.6 h⁻¹
- AHI [5, 10]: 9.8 n/h
- lowest saturation [5, 10]: 89%
- mean oxygen saturation [5, 10]: 95.8%
- periodic breathing pattern ([5]; 100 mg orally once daily, after 5 days, baseline 14.3 minutes): 10.1 min
- central AHI ([5]; 200 mg once daily for 14 days): 1.2 n/h
- obstructive AHI ([5]; 200 mg once daily for 14 days): 3.0 n/h
- AHI ([5]; 200 mg once daily for 14 days): 4.2 n/h
- lowest saturation ([5]; 200 mg once daily for 14 days): 90%
- mean oxygen saturation ([5]; 200 mg once daily for 14 days): 96.7%
- periodic breathing pattern duration ([5]; 200 mg once daily for 14 days, baseline 14.3 minutes): 2.8 min
- dose dependence of AHI reduction ([5]; 200 mg once daily versus 100 mg once daily): reduced AHI in a dose-dependent manner
- Side effect total rating (T) (scale 0-3) [1]: 1
- Reduction in AHI [1, 9]: 62.7%
- Reduction in AHI ([1]; topiramate unpublished data (n = 4), listed as sultiame): 62.7%
- Efficacy AHI reduction (rating 0-3) [1]: 3 (≥50% = 3)
- Side effect cognitive dysfunction (C) (scale 0-3) [1]: 1
- Side effect paresthesia (P) (scale 0-3) [1]: 1
- Reported adverse events. Frequency (n/patient) ([1]; sultiame, Examples 1 and 2 (n = 3)): 0% (AHI reduction 0-5 < % = 0)
- adverse effects after administration ([1]; sultiame, patients with obstructive sleep apnea, Examples 1 and 2): not observed
- tolerability at high doses ([6]; 200 mg without ramping up the dose, healthy volunteers): excellent tolerability
- reports of adverse events (short periods of headache, drug administered without food) ([6]; 200 mg, 16 volunteers, 32 dosing occasions): two
- adverse events, % of dosing occasions ([6]; 200 mg, 32 dosing occasions, 16 healthy volunteers): 6.25%
- adverse events, % of individuals ([6]; 200 mg, two times (with and without prior food intake), 16 healthy volunteers): 12.5%
- half-life in plasma [7]: about 24 hrs
- AHI at follow-up ([4]; first subject, day 89, before 17.4 n/h): 7.6 n/h
- AHI at follow-up ([4]; second subject, day 90, before 15.2 n/h): 6.5 n/h
- daytime sleepiness ([4]; sultiame 200 mg daily for three months, both cases): reduction of daytime sleepiness
- side effects: paraesthesia [4, 11]: not reported
- snoring [4, 11]: reduced snoring
- tolerability [4, 11]: well tolerated by both subjects
- effectiveness in decreasing sleep apnea versus acetazolamide ([4]; sultiame 200 mg daily versus acetazolamide 500 mg o.d.): considerably more effective than acetazolamide

SMILES: CC1(C)O[C@@H]2[C@@H](CO[C@@]3(COS(N)(=O)=O)OC(C)(C)O[C@@H]23)O1 [Topiramate]
- Side effect total rating (T) (scale 0-3) [1]: 3.7
- Reported adverse events. Frequency (n/patient) [1, 8]: 0.75/patient
- Reduction in AHI [1, 9]: 28.0%
- Reduction in AHI ([1]; topiramate unpublished data (n = 4), listed as topiramate): 28.0%
- Efficacy AHI reduction (rating 0-3) [1]: 1 (5-<30% = 1)
- Side effect cognitive dysfunction (C) (scale 0-3) [1]: 4
- Side effect paresthesia (P) (scale 0-3) [1]: 3

SMILES: NS(=O)(=O)Cc1noc2ccccc12 [Zonisamide]
- Side effect total rating (T) (scale 0-3) [1]: 3.3
- Reduction in AHI [3]: 20.7%
- Reported adverse events. Frequency (n/patient) [3]: 0.44/patient
- Reduction in AHI ([3]; listed as zonisamide): 20.7%
- Efficacy AHI reduction (rating 0-3) [3]: 1 (5-<30% = 1)
- Side effect cognitive dysfunction (C) (scale 0-3) [3]: 4
- Side effect paresthesia (P) (scale 0-3) [3]: 2
